Results from article PMC4331650 (Biochimica et Biophysica Acta, 2014).
Positions count from the first letter of the chain named. “Also recorded” adds a separate entry of the source.

Key:
F256A CLC-Ka/barttin = biological target: T1, F256A CLC-Ka/barttin (Homo sapiens, UniProt P51800, F256A); experiment: NFA effect on F256A CLC-Ka/barttin, whole-cell patch clamp in HEK293 cells; assay type: cell-based
T1 sequence (P51800 1-687 F256A): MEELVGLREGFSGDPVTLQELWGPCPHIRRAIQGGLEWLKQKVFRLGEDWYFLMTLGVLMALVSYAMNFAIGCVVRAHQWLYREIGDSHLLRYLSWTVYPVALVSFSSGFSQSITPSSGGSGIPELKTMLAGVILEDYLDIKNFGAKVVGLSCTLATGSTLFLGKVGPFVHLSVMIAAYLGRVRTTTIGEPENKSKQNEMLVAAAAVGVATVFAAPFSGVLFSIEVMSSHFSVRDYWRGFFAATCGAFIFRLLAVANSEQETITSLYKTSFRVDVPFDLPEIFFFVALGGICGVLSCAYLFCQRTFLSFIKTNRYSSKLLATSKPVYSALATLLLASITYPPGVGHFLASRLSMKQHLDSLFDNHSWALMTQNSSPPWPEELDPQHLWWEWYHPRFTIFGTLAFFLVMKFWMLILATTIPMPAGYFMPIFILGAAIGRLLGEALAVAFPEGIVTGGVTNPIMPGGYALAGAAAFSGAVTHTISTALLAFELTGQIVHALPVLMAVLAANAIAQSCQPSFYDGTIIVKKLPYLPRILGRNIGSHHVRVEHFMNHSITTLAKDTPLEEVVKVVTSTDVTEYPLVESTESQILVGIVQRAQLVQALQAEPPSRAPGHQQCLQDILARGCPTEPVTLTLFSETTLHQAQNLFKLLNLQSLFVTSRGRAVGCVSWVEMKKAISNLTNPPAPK
T1 sequence (Q8WZ55 1-320 partner): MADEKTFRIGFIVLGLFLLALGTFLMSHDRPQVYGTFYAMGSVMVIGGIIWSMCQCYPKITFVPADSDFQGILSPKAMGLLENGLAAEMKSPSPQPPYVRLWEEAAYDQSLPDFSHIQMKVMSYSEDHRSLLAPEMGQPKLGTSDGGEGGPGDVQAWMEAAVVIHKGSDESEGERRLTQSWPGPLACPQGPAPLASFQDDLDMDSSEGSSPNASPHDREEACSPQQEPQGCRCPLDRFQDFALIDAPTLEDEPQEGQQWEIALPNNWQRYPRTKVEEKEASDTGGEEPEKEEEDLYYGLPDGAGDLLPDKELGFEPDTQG

F256A CLC-K1/barttin = biological target: T2, F256A CLC-K1/barttin (Rattus norvegicus, UniProt Q06393, F256A); experiment: NFA effect on F256A CLC-K1/barttin, voltage clamp in Xenopus oocytes; assay type: cell-based
T2 sequence (Q06393 1-687 F256A): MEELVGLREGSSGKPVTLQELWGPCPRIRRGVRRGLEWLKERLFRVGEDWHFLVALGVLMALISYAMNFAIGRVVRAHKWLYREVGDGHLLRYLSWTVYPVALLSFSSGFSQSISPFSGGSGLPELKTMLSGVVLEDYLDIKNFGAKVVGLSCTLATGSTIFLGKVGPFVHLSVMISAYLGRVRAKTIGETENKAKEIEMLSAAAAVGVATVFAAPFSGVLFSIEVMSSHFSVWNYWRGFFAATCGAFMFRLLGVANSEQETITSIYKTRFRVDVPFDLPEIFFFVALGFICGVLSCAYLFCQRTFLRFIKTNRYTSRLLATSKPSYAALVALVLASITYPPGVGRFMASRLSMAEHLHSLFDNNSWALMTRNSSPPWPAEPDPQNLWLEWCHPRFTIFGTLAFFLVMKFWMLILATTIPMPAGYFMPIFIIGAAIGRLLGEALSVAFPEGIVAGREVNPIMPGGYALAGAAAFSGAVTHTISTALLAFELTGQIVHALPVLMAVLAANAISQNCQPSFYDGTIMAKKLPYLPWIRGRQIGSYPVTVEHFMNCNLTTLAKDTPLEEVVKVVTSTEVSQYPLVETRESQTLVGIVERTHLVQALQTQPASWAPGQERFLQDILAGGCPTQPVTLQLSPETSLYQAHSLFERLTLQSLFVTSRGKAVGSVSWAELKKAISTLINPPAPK
T2 sequence (Q8WZ55 1-320 Y98A partner): T1 sequence (Q8WZ55 1-320 partner) with Y98A

CLC-K1/barttin = biological target: T3, CLC-K1/barttin (Rattus norvegicus, UniProt Q06393); experiment: NFA effect on WT CLC-K1/barttin, voltage clamp in Xenopus oocytes; assay type: cell-based
T3 sequence (Q06393 1-687): T2 sequence (Q06393 1-687 F256A) with A256F
T3 sequence (Q8WZ55 1-320 Y98A partner): T1 sequence (Q8WZ55 1-320 partner) with Y98A

F256A CLC-Ka = biological target: T4, F256A CLC-Ka (Homo sapiens, UniProt P51800, F256A); experiment: NFA modulation of F256A CLC-Ka currents, voltage clamp in Xenopus oocytes; assay type: cell-based
T4 sequence (P51800 1-687 F256A): T1 sequence (P51800 1-687 F256A)
T4 sequence (Q8WZ55 1-320 Y98A partner): T1 sequence (Q8WZ55 1-320 partner) with Y98A

human CLC-Ks = settings: HEK293 cells; all concentrations tested, from 0.3 to 2000 μM; cited from earlier work

O=C(O)c1cccnc1Nc1cccc(C(F)(F)F)c1 [NFA, niflumic acid]
effect of NFA on currents (F256A CLC-Ka/barttin; 20 μM NFA): increased | effect of NFA on currents (F256A CLC-Ka/barttin; 500 μM NFA): inhibited | [NFA]ext up to which potentiation is seen (F256A CLC-Ka/barttin; inhibition at higher [NFA]ext): up to 200 μM | effect of NFA on currents (F256A CLC-K1/barttin; 10 μM NFA, steady state currents not increased): transient potentiation | maximal potentiation (I1/I0) (F256A CLC-K1/barttin; transient potentiation extrapolated by single-exponential function): around 1.9 fold | currents relative to control conditions (CLC-K1/barttin; 10 μM NFA): about 80% | currents relative to control conditions (CLC-K1/barttin; 200 μM NFA): ~45% | potentiation of currents (F256A CLC-Ka; 2 μM NFA): two-fold | current increase (F256A CLC-Ka; 200 μM NFA, F256A CLC-Ka in Xenopus oocytes): ~ 25 fold | effect of NFA on currents (F256A CLC-Ka; all concentrations tested, from 1 to 2000 μM): potentiated | maximal stimulation (potentiation) of currents (F256A CLC-Ka; at 500 μM NFA, currents at 60 mV normalized to 0 NFA): 37 fold | effect of NFA on currents (human CLC-Ks): inhibited; also recorded: no longer potentiated
